Data taken from patent US20240150362A1, “Substituted Pyrrolotriazines” (Molecure S.A., priority 2022, published 2024).
Structures can show the parent of a compound that is named as a salt.

Each compound was assayed against T1, full-length USP7 (Homo sapiens, UniProt Q93009) (assay: Enzymatic assay to determine IC50 of USP7 inhibitors (Ubiquitin-Rhodamine 110 cleavage)). Settings: full-length USP7 0.5-1.0 nM, 0.5 μM Ubiquitin-Rhodamine 110, 30-60 min at 25° C.
T1 construct: A 45 μl reaction volume containing full-length USP7 (0.5-1.0 nM)
T1 sequence (Q93009 whole entry): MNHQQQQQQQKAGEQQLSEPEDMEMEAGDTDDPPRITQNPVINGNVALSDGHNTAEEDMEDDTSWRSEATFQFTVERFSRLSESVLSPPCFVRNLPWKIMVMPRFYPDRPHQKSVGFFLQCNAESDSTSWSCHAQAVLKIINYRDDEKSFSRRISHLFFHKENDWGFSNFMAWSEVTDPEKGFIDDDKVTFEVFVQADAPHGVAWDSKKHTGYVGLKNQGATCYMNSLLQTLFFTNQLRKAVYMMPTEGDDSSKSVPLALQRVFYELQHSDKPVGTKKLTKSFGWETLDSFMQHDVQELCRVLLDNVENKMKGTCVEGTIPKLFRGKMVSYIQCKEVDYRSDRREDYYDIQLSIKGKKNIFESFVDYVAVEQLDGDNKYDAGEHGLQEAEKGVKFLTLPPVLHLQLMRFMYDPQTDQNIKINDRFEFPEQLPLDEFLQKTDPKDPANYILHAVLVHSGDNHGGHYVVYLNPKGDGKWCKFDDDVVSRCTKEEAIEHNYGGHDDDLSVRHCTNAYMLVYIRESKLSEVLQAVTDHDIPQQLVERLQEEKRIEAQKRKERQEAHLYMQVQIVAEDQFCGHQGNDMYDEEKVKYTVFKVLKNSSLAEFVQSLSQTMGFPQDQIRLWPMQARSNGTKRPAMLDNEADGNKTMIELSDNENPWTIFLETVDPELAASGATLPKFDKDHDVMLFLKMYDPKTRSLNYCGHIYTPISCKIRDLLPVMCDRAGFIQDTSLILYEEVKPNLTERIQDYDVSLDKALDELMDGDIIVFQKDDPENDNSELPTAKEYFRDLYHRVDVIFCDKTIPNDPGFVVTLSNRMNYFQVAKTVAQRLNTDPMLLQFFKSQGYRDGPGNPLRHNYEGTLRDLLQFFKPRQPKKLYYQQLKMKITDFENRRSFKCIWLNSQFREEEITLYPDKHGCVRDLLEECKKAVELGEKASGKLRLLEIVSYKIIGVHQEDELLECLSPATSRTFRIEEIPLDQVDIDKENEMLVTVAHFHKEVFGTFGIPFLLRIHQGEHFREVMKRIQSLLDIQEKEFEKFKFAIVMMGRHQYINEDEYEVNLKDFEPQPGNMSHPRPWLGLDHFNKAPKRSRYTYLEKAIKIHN
Format: biochemical
Method: Enzymatic Assay to Determine IC50 of USP7 Inhibitors
The IC50 is the concentration of an inhibitor where the measured enzyme activity is reduced by half. In the case of USP7 deubiquitinase, the IC50 of an USP7 inhibitor is the molar concentration of the compound that inhibits 50% of the activity observed in a USP7-mediated-ubiquitin-rhodamine cleavage assay. For the inhibitors disclosed herein, their potency was measured using the following method.
A 45 μl reaction volume containing full-length USP7 (0.5-1.0 nM) in 50 mM HEPES pH 7.5, 150 mM NaCl, 2 mM DTT, 1 mg/ml BSA and 0.05% Tween20 was assembled in wells of 96 well half area black flat bottom plates. Test compounds were first dissolved to 30 mM stocks in DMSO and subsequently introduced to enzyme 15 min after USP7 incubation with DTT at room temperature. The enzymatic reaction was started by adding 0.5 μM Ubiquitin-Rhodamine 110 (final concentration) and allowed to proceed for 30-60 min at 25° C., 250 RPM shaking before Rhodamine fluorescence (485 nm excitation/535 nm emission) was measured using Tecan Spark M10 plate reader. The IC50 values were determined by data fitting to variable slope model four-parameter dose-response curve using GraphPad 7.05.

IC50, < 500 nM:
CC1(C)C2C(=O)N(Cc3cc4c(-c5cc(Cl)cc6ccn(CC7CNCCO7)c56)ncnn4c3)C(=O)C21 (stereo not shown) [Example 24, 3-((4-(5-chloro-1-(morpholin-2-ylmethyl)-1H-indol-7-yl)pyrrolo[2,1-f][1,2,4]triazin-6-yl)methyl)-6,6-dimethyl-3-azabicyclo[3.1.0]hexane-2,4-dione dihydrochloride]
CC1(C)C2C(=O)N(Cc3cc4c(-c5cc(Cl)cc6ccn(CC7(C#N)CCNCC7)c56)ncnn4c3)C(=O)C21 (stereo not shown) [Example 25, 4-((5-chloro-7-(6-((6,6-dimethyl-2,4-dioxo-3-azabicyclo[3.1.0]hexan-3-yl)methyl)pyrrolo[2,1-f][1,2,4]triazin-4-yl)-1H-indol-1-yl)methyl)piperidine-4-carbonitrile 2,2,2-trifluoroacetate]
Cc1cc(Cl)cc(-c2ncnn3cc(CN4C(=O)C5C(C4=O)C5(C)C)cc23)c1CC1CNC[C@H](C)O1 (stereo partly drawn) [Example 27, 3-((4-(5-chloro-3-methyl-2-(((6S)-6-methylmorpholin-2-yl)methyl)phenyl)pyrrolo[2,1-f][1,2,4]triazin-6-yl)methyl)-6,6-dimethyl-3-azabicyclo[3.1.0]hexane-2,4-dione dihydrochloride]
CC1(C)C2C(=O)N(Cc3cc4c(-c5cc(Cl)cc6ccn(CC7(F)CCCNC7)c56)ncnn4c3)C(=O)C21 (stereo not shown) [Example 29, 3-((4-(5-chloro-1-((3-fluoropiperidin-3-yl)methyl)-1H-indol-7-yl)pyrrolo[2,1-f][1,2,4]triazin-6-yl)methyl)-6,6-dimethyl-3-azabicyclo[3.1.0]hexane-2,4-dione hydrochloride]
CC1(C)C2C(=O)N(Cc3cc4c(-c5cc([N+](=O)[O-])cc6ccn(C[C@@H]7CNCCO7)c56)ncnn4c3)C(=O)C21 (stereo partly drawn) [Example 32, 6,6-dimethyl-3-((4-(1-(((S)-morpholin-2-yl)methyl)-5-nitro-1H-indol-7-yl)pyrrolo[2,1-f][1,2,4]triazin-6-yl)methyl)-3-azabicyclo[3.1.0]hexane-2,4-dione 2,2,2-trifluoroacetate]
CC1(C)C2C(=O)N(Cc3cc4c(-c5cc(C(F)(F)F)cc6ccn(C[C@@H]7CNCCO7)c56)ncnn4c3)C(=O)C21 (stereo partly drawn) [Example 35, 6,6-dimethyl-3-((4-(1-(((S)-morpholin-2-yl)methyl)-5-(trifluoromethyl)-1H-indol-7-yl)pyrrolo[2,1-f][1,2,4]triazin-6-yl)methyl)-3-azabicyclo[3.1.0]hexane-2,4-dione 2,2,2-trifluoroacetate]
O=C1CNC(=O)N1Cc1cc2c(-c3cc(Cl)cc4ccn(C[C@@H]5CNCCO5)c34)ncnn2c1 [Example 37, (S)-3-((4-(5-chloro-1-(morpholin-2-ylmethyl)-1H-indol-7-yl)pyrrolo[2,1-f][1,2,4]triazin-6-yl)methyl)imidazolidine-2,4-dione hydrochloride]
Cn1ccc(=O)n(Cc2cc3c(-c4cc(Cl)cc5ccn(C[C@@H]6CNCCO6)c45)ncnn3c2)c1=O [Example 39, (S)-3-((4-(5-chloro-1-(morpholin-2-ylmethyl)-1H-indol-7-yl)pyrrolo[2,1-f][1,2,4]triazin-6-yl)methyl)-1-methylpyrimidine-2,4(1H,3H)-dione hydrochloride]
CC1(C)C2C(=O)N(Cc3cc4c(-c5cc(Cl)cc6cnn(C[C@@H]7CNCCO7)c56)ncnn4c3)C(=O)C21 (stereo partly drawn) [Example 44, 3-((4-(5-chloro-1-(((S)-morpholin-2-yl)methyl)-1H-indazol-7-yl)pyrrolo[2,1-f][1,2,4]triazin-6-yl)methyl)-6,6-dimethyl-3-azabicyclo[3.1.0]hexane-2,4-dione 2,2,2-trifluoroacetate]
CC1(C)C2C(=O)N(Cc3cc4c(-c5cc(Cl)cc6c(F)nn(C[C@@H]7CNCCO7)c56)ncnn4c3)C(=O)C21 (stereo partly drawn) [Example 45, 3-((4-(5-chloro-3-fluoro-1-(((S)-morpholin-2-yl)methyl)-1H-indazol-7-yl)pyrrolo[2,1-f][1,2,4]triazin-6-yl)methyl)-6,6-dimethyl-3-azabicyclo[3.1.0]hexane-2,4-dione hydrochloride]
Cc1cc(Cl)cc(-c2ncnn3cc(CN4C(=O)C5C(C4=O)C5(C)C)cc23)c1OCC1CCNCC1 (stereo not shown) [Example 48, 3-((4-(5-chloro-3-methyl-2-(piperidin-4-ylmethoxy)phenyl)pyrrolo[2,1-f][1,2,4]triazin-6-yl)methyl)-6,6-dimethyl-3-azabicyclo[3.1.0]hexane-2,4-dione hydrochloride]
Cc1cc(Cl)cc(-c2ncnn3cc(CN4C(=O)C5C(C4=O)C5(C)C)cc23)c1CC1CN[C@@H](C)CO1 (stereo partly drawn) [Example 49, 3-((4-(5-chloro-3-methyl-2-(((5S)-5-methylmorpholin-2-yl)methyl)phenyl)pyrrolo[2,1-f][1,2,4]triazin-6-yl)methyl)-6,6-dimethyl-3-azabicyclo[3.1.0]hexane-2,4-dione hydrochloride]
CC1(C)C2C(=O)N(Cc3cc4c(-c5cc(Cl)cc6c5N(C5CCNC5)CCO6)ncnn4c3)C(=O)C21 (stereo not shown) [Example 55, 3-((4-(7-chloro-4-(pyrrolidin-3-yl)-3,4-dihydro-2H-benzo[b][1,4]oxazin-5-yl)pyrrolo[2,1-f][1,2,4]triazin-6-yl)methyl)-6,6-dimethyl-3-azabicyclo[3.1.0]hexane-2,4-dione hydrochloride]
Cc1cc(Cl)cc(-c2ncnn3cc(CN4C(=O)C5C(C4=O)C5(C)C)cc23)c1OCC1(C)CCNCC1 (stereo not shown) [Example 58, 3-((4-(5-chloro-3-methyl-2-((4-methylpiperidin-4-yl)methoxy)phenyl)pyrrolo[2,1-f][1,2,4]triazin-6-yl)methyl)-6,6-dimethyl-3-azabicyclo[3.1.0]hexane-2,4-dione hydrochloride]
Cc1cc(Cl)cc(-c2ncnn3cc(Cn4c(=O)ccn(C)c4=O)cc23)c1CC1CNC[C@H](C)O1 (stereo partly drawn) [Example 59, 3-((4-(5-chloro-3-methyl-2-(((6S)-6-methylmorpholin-2-yl)methyl)phenyl)pyrrolo[2,1-f][1,2,4]triazin-6-yl)methyl)-1-methylpyrimidine-2,4(1H,3H)-dione hydrochloride]
Cn1ccc(=O)n(Cc2cc3c(-c4cc(Cl)cc5ccn(CC6(F)CCNCC6)c45)ncnn3c2)c1=O [Example 61, 3-((4-(5-chloro-1-((4-fluoropiperidin-4-yl)methyl)-1H-indol-7-yl)pyrrolo[2,1-f][1,2,4]triazin-6-yl)methyl)-1-methylpyrimidine-2,4(1H,3H)-dione hydrochloride]
Cc1cc(Cl)cc(-c2ncnn3cc(Cn4c(=O)ccn(CC(F)(F)F)c4=O)cc23)c1CC1CNC[C@H](C)O1 (stereo partly drawn) [Example 62, 3-((4-(5-chloro-3-methyl-2-(((6S)-6-methylmorpholin-2-yl)methyl)phenyl)pyrrolo[2,1-f][1,2,4]triazin-6-yl)methyl)-1-(2,2,2-trifluoroethyl)pyrimidine-2,4(1H,3H)-dione hydrochloride]
CC1(C)C2C(=O)N(Cc3cc4c(-c5cc(Cl)cc6c5N(CC5(F)CCNCC5)CCC6)ncnn4c3)C(=O)C21 (stereo not shown) [Example 63, 3-((4-(6-chloro-1-((4-fluoropiperidin-4-yl)methyl)-1,2,3,4-tetrahydroquinolin-8-yl)pyrrolo[2,1-f][1,2,4]triazin-6-yl)methyl)-6,6-dimethyl-3-azabicyclo[3.1.0]hexane-2,4-dione hydrochloride]
O=c1ccn(CC(F)(F)F)c(=O)n1Cc1cc2c(-c3cc(Cl)cc4ccn(CC5(F)CCNCC5)c34)ncnn2c1 [Example 70, 3-((4-(5-chloro-1-((4-fluoropiperidin-4-yl)methyl)-1H-indol-7-yl)pyrrolo[2,1-f][1,2,4]triazin-6-yl)methyl)-1-(2,2,2-trifluoroethyl)pyrimidine-2,4(1H,3H)-dione dihydrochloride]
Cc1cc(Cl)cc(-c2ncnn3cc(CN4C(=O)C5C(C4=O)C5(C)C)cc23)c1NCC1(C)CCNCC1 (stereo not shown) [Example 78, 3-((4-(5-chloro-3-methyl-2-(((4-methylpiperidin-4-yl)methyl)amino)phenyl)pyrrolo[2,1-f][1,2,4]triazin-6-yl)methyl)-6,6-dimethyl-3-azabicyclo[3.1.0]hexane-2,4-dione dihydrochloride]
Cc1cc(Cl)cc(-c2ncnn3cc(CN4C(=O)C5C(C4=O)C5(C)C)cc23)c1NCC1(F)CCNCC1 (stereo not shown) [Example 80, 3-((4-(5-chloro-2-(((4-fluoropiperidin-4-yl)methyl)amino)-3-methylphenyl)pyrrolo[2,1-f][1,2,4]triazin-6-yl)methyl)-6,6-dimethyl-3-azabicyclo[3.1.0]hexane-2,4-dione dihydrochloride]
C[C@@H]1CN(C2CCNC2)c2c(cc(Cl)cc2-c2ncnn3cc(CN4C(=O)C5C(C4=O)C5(C)C)cc23)O1 (stereo partly drawn) [Example 93, 3-((4-((2R)-7-chloro-2-methyl-4-(pyrrolidin-3-yl)-3,4-dihydro-2H-benzo[b][1,4]oxazin-5-yl)pyrrolo[2,1-f][1,2,4]triazin-6-yl)methyl)-6,6-dimethyl-3-azabicyclo[3.1.0]hexane-2,4-dione hydrochloride]
